According to ChEMBL document CHEMBL1136921, “Benzylguanidines and other galegine analogues inducing weight loss in mice” (J Med Chem, 2009):

Assays:
Mus musculus [1] = assay: Hypoglycemic activity in lean normal BALB/c mouse assessed as blood glucose level at 0.54 mmol/kg/day administered through diet for 7 days relative to time-matched control; format: functional
Mus musculus [2] = assay: Antiobesity activity in lean normal BALB/c mouse assessed as change in average daily food intake at 0.54 mmol/kg/day administered through diet for 7 days relative to time-matched control; format: functional
Mus musculus [3] = assay: Antiobesity activity in lean normal BALB/c mouse assessed as change in average daily weight at 0.54 mmol/kg/day administered through diet for 7 days relative to time-matched control; format: functional
Mus musculus [4] = assay: Toxicity in lean normal BALB/c mouse assessed as overt signs of behavioural changes at equimolar dose of 0.5 mmol/kg galegine administered daily through diet for 7 days; format: organism-based; conditions: in vivo, po, 168 h
Mus musculus [5] = assay: Antiobesity activity in ob/ob mouse model assessed as change in average daily weight at 0.26 mmol/kg/day administered through diet for 28 days relative to time-matched control; format: functional
Mus musculus [6] = assay: Antiobesity activity in ob/ob mouse model assessed as change in average daily food intake at 0.26 mmol/kg/day administered through diet for 28 days relative to time-matched control; format: functional
[7] = Metabolic stability in ob/ob mouse liver microsomes assessed as oxidative hydroxylation at 50 uM after 45 mins by HPLC-MS analysis; format: ADME, Microsome; conditions: 0.75 h
Mus musculus [8] = assay: Hypoglycemic activity in ob/ob mouse model assessed as blood glucose level at 0.26 mmol/kg/day administered through diet for 28 days relative to time-matched control; format: functional
Mus musculus [9] = assay: Antiobesity activity in high fat diet-induced obese BALB/c mouse model assessed as change in average daily body weight at 0.43 mmol/kg/day administered through diet for 28 days relative to time-matched control; format: functional
Mus musculus [10] = assay: Antiobesity activity in high fat diet-induced obese BALB/c mouse model assessed as change in average daily food intake at 0.43 mmol/kg/day administered through diet for 28 days relative to time-matched control; format: functional
Mus musculus [11] = assay: Hypoglycemic activity in high fat diet-induced obese BALB/c mouse model assessed as blood glucose level at 0.43 mmol/kg/day administered through diet for 28 days relative to time-matched control; format: functional
Mus musculus [12] = assay: Hypoglycemic activity in lean normal BALB/c mouse assessed as blood glucose level at 0.62 mmol/kg/day administered through diet for 7 days relative to time-matched control; format: functional
Mus musculus [13] = assay: Antiobesity activity in lean normal BALB/c mouse assessed as change in average daily food intake at 0.62 mmol/kg/day administered through diet for 7 days relative to time-matched control; format: functional
Mus musculus [14] = assay: Antiobesity activity in lean normal BALB/c mouse assessed as change in average daily weight at 0.62 mmol/kg/day administered through diet for 7 days relative to time-matched control; format: functional
Mus musculus [15] = assay: Antiobesity activity in ob/ob mouse model assessed as change in average daily weight at 0.27 mmol/kg/day administered through diet for 28 days relative to time-matched control; format: functional
Mus musculus [16] = assay: Antiobesity activity in ob/ob mouse model assessed as change in average daily food intake at 0.27 mmol/kg/day administered through diet for 28 days relative to time-matched control; format: functional
Mus musculus [17] = assay: Hypoglycemic activity in ob/ob mouse model assessed as blood glucose level at 0.27 mmol/kg/day administered through diet for 28 days relative to time-matched control; format: functional
Mus musculus [18] = assay: Antiobesity activity in high fat diet-induced obese BALB/c mouse model assessed as change in average daily body weight at 0.45 mmol/kg/day administered through diet for 28 days relative to time-matched control; format: functional
Mus musculus [19] = assay: Antiobesity activity in high fat diet-induced obese BALB/c mouse model assessed as change in average daily food intake at 0.45 mmol/kg/day administered through diet for 28 days relative to time-matched control; format: functional
Mus musculus [20] = assay: Hypoglycemic activity in high fat diet-induced obese BALB/c mouse model assessed as blood glucose level at 0.45 mmol/kg/day administered through diet for 28 days relative to time-matched control; format: functional
Mus musculus [21] = assay: Antiobesity activity in lean normal BALB/c mouse assessed as change in average daily food intake at 0.59 mmol/kg/day administered through diet for 7 days relative to time-matched control; format: functional
Mus musculus [22] = assay: Hypoglycemic activity in lean normal BALB/c mouse assessed as blood glucose level at 0.59 mmol/kg/day administered through diet for 7 days relative to time-matched control; format: functional
Mus musculus [23] = assay: Antiobesity activity in lean normal BALB/c mouse assessed as change in average daily weight at 0.59 mmol/kg/day administered through diet for 7 days relative to time-matched control; format: functional
Mus musculus [24] = assay: Antiobesity activity in ob/ob mouse model assessed as change in average daily weight at 0.24 mmol/kg/day administered through diet for 28 days relative to time-matched control; format: functional
Mus musculus [25] = assay: Antiobesity activity in ob/ob mouse model assessed as change in average daily food intake at 0.24 mmol/kg/day administered through diet for 28 days relative to time-matched control; format: functional
Mus musculus [26] = assay: Hypoglycemic activity in ob/ob mouse model assessed as blood glucose level at 0.24 mmol/kg/day administered through diet for 28 days relative to time-matched control; format: functional
Mus musculus [27] = assay: Antiobesity activity in high fat diet-induced obese BALB/c mouse model assessed as change in average daily body weight at 0.42 mmol/kg/day administered through diet for 28 days relative to time-matched control; format: functional
Mus musculus [28] = assay: Antiobesity activity in high fat diet-induced obese BALB/c mouse model assessed as change in average daily food intake at 0.42 mmol/kg/day administered through diet for 28 days relative to time-matched control; format: functional
Mus musculus [29] = assay: Hypoglycemic activity in high fat diet-induced obese BALB/c mouse model assessed as blood glucose level at 0.42 mmol/kg/day administered through diet for 28 days relative to time-matched control; format: functional

## N=C(N)NCc1ccccc1
Mus musculus [1]
  Activity: 60%
Mus musculus [2]
  Activity: -28.1%
Mus musculus [3]
  Activity: -10.4%
Mus musculus [4]
  Activity: Non-toxic
Mus musculus [5]
  Activity: -6.8%
Mus musculus [6]
  Activity: -29.3%
[7]
  Activity: Stable
Mus musculus [8]
  Activity: 82%
Mus musculus [9]
  Activity: -10.6%
Mus musculus [10]
  Activity: -14.9%
Mus musculus [11]
  Activity: 90%

## N=C(N)NCc1ccc(F)cc1
Mus musculus [12]
  Activity: 56%
Mus musculus [13]
  Activity: -27.8%
Mus musculus [14]
  Activity: -14.7%
Mus musculus [4]
  Activity: Non-toxic
Mus musculus [15]
  Activity: -8.7%
Mus musculus [16]
  Activity: -26.8%
Mus musculus [17]
  Activity: 102%
Mus musculus [18]
  Activity: -7.8%
Mus musculus [19]
  Activity: -9.8%
Mus musculus [20]
  Activity: 93%

## N=C(N)NCc1ccc(Cl)cc1
Mus musculus [21]
  Activity: -34.7%
Mus musculus [22]
  Activity: 59%
Mus musculus [23]
  Activity: -19.7%
Mus musculus [4]
  Activity: Non-toxic
Mus musculus [24]
  Activity: -11%
Mus musculus [25]
  Activity: -38.5%
Mus musculus [26]
  Activity: 71%
Mus musculus [27]
  Activity: -7.3%
Mus musculus [28]
  Activity: -15.6%
Mus musculus [29]
  Activity: 94%
